Source: patent US20250049840A1, “COMPOSITIONS COMPRISING A CHEMOKINE RECEPTOR PATHWAY INHIBITOR” (DIMERIX BIOSCIENCE PTY LTD, priority 2022, published 2025)
“Also recorded” adds a separate entry of the source.

Legend:
[1] = target: MCP-1 (Homo sapiens, UniProt P13500); details: Yokochi (2001); Yamada (2004); cited from earlier work
[2] = tested on: monocytes; details: Yokochi (2001); Yamada (2004); cited from earlier work
[3] = In Use stability study: repagermanium IR capsules reconstituted in water in a medical pot, with or without nasogastric tube (assay, appearance, pH); type: physicochemical; details: reconstituted in 15 ml water in a medical pot, up to 3 h (180 minutes)
Experimental: An In Use stability study was performed to determine the reconstitution and dosage information for administration of repagermanium IR capsules via nasogastric feeding tube. The objective of the study was to: • 1. measure the stability of the repagermanium drug product composition once reconstituted in water for administration via a gastric tube, • 2. determine if there is any residual repagermanium remaining in the medicine pot after the first 15 mL solution has been removed, and • 3. identify if additional flushing of the nasogastric tube will be required to deliver the correct dose of repagermanium. There were 6 experiments in total. Each experiment was performed in duplicate (except for micro tests). [table]

MCP-1, sequence (P13500 24-99, species assumed): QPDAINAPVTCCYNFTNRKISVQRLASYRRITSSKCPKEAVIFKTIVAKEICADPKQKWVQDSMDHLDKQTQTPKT

SMILES | inhibition of MCP-1 binding [1] | inhibition of in vitro chemotactic migration of monocytes by MCP-1 [2] | chemical and microbiological stability after reconstitution [3]
O=C(O)C[CH2][Ge](=[O])[O][Ge](=[O])[CH2]CC(=O)O [Propagermanium, 3-[(2-carboxyethyl-oxogermyl)oxy-oxogermyl] propanoic acid] | does not inhibit MCP-1 binding | specifically inhibit in vitro chemotactic migration of monocytes by MCP-1; also recorded: inhibits in-vitro chemotactic migration of monocytes by MCP-1 | –
O=C(O)C[CH2][Ge](=[O])[O][Ge](=[O])[CH2]CC(=O)O [repagermanium, 3-[(2-carboxyethyl-oxogermyl)oxy-oxogermyl] propanoic acid] | – | – | chemically and microbiologically stable
